Results: ChEMBL document CHEMBL1201862, “PubChem BioAssay data set” (2004)
The source made the active and inactive calls.

How the values were obtained:
cells [1] = test: cells
[2] = viability of uninfected HEp-2 cells – cell-based, HTS, cytotoxicity control for RSV inhibitor project, dose response (AID 2410); assay type: functional; conditions: human respiratory syncytial virus
Leucine aminopeptidase = molecular target: T1, Leucine aminopeptidase (Plasmodium falciparum 3D7, UniProt Q8IL11); test: P. falciparum M17LAP inhibitors, primary screen, biochemical, fluorogenic H-Leu-NHMec substrate, 1536-well (AID 1619); assay type: functional
T1 sequence (Q8IL11 whole entry): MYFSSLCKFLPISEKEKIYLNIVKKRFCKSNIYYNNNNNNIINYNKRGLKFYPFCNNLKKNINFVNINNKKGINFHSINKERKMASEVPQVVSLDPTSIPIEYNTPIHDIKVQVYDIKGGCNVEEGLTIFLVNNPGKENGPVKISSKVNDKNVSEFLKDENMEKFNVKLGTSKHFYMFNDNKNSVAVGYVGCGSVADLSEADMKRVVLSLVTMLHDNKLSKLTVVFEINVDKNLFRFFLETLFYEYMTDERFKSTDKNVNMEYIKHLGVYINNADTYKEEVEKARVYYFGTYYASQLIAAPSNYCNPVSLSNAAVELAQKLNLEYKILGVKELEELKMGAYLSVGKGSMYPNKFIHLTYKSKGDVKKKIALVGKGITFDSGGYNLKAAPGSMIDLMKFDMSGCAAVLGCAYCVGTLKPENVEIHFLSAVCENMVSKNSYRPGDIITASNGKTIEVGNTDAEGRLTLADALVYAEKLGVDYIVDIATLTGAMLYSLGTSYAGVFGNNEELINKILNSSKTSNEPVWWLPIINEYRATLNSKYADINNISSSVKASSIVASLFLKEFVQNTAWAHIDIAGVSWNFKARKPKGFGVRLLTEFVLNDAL

Paired box protein Pax-8 = Paired box protein Pax-8 (Homo sapiens, UniProt Q06710); test: PAX8 transcriptional activity inhibition in RMG-I – RMG-I cells, luciferase, cherry-pick, dose response (AID 687027); assay type: functional, cell-based;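 further: luciferase reporter driven by Pax8 target thyroperoxidase promoter measured by SteadyGlo luminescence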
[3] = OVCAR-3 cell viability loss – plate reader, dry powder samples, PAX8 inhibitor project, dose response (AID 743044); assay type: functional, cell-based
[4] = HIV-1 AD8 envelope cell-cell fusion blockers – cherry-pick, dose response (AID 652062); assay type: functional, cell-based;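 further: luciferase signal from cell-cell fusion driven by HIV-1 clade B AD8 Env; potency is for inhibitors of fusion seen as a drop in luminescence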
[5] = off-target signal loss in HeLa-CEM21 co-culture – HeLa F-luc CTL cells, cherry-picked, counter-screen for HIV-1 Env fusion inhibitor project, dose response (AID 652040); assay type: functional, cell-based;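 further: potency for signal decrease marking cytotoxic or nonspecific inhibition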
[6] = blockers of HIV-1 ZM109 envelope-driven cell-cell fusion – HeLa effector, CEM target cells, luciferase, cherry-pick, dose response (AID 652058); assay type: functional, cell-based;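 further: luciferase signal from HIV-1 Env mediated cell-cell fusion of effector and target cells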
[7] = blockers of HIV-1 envelope-mediated cell-cell fusion – cherry-pick, dose response (AID 652057); assay type: functional, cell-based
Major prion protein = Major prion protein (Homo sapiens, UniProt P04156); assay type: functional, cell-based
cells [8] = test: cells; remark: listed apart in the source
[9] = A Cell Based Secondary Assay To Explore Cytotoxicity of Compounds that Sensitize Mycobacterium Tuberculosis to Beta-Lactam Antibiotics.; assay type: functional
[10] = fluconazole-exposed Candida albicans growth modulators – fluorescence, retest, confirmation (AID 2467); assay type: functional, cell-based
[11] = NIH-3T3 fibroblast cytotoxicity, dose response, cytotoxicity control, cell-based, fluorescence, Alamar Blue, secondary assay (AID 2327); assay type: functional;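 further: NIH-3T3 mouse fibroblasts cultured with fluconazole at 8 µg/mL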
[12] = Trypanosoma cruzi growth suppression in host cells – NIH3T3 host cells, beta-gal luminescence, confirmation (AID 2044); assay type: functional, cell-based;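 further: intracellular parasites grown in NIH/3T3 mouse fibroblasts as host cells; luminescent beta-galactosidase reporter signal from transgenic T. cruzi replicating inside host cells; inhibitors lower the luminescence signal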
Melanocortin receptor 4 = Melanocortin receptor 4 (Homo sapiens, UniProt P32245); assay type: functional, cell-based;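 further: Cell-based assay with luminescence read-out, confirmatory dose-response testing for agonist activity of biased ligands at MC4R; human U2OS cells with tagged receptor and beta-arrestin; potency of agonists that increase receptor coupling to beta-arrestin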
[13] = NIH3T3 cell viability loss – ATP luminescence, mouse fibroblasts, counter-screen, dose response (AID 2010); assay type: functional, cell-based;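 further: cells exposed to compound for about 90 hours before reading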
[14] = molecular target: Induced myeloid leukemia cell differentiation protein Mcl-1 (Homo sapiens, UniProt Q07820); assay type: functional
[15] = loss of viability in HepG2 cells – cell-based, CellTiter-Glo, cherry-picked, cytotoxicity control for Shn3 inhibitor project, dose response (AID 624134); assay type: functional
[16] = reduction of Shn3 3'UTR-driven luciferase in osteoblasts – cell-based, Clone20 osteoblasts, firefly luciferase, cherry-picked, dose response (AID 624132); assay type: functional;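 further: firefly luciferase luminescence from reporter carrying the Shn3 3'UTR in osteoblasts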
Cytochrome P450 3A4 = Cytochrome P450 3A4 (Homo sapiens, UniProt P08684);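 further: CYP3A4 tested as one member of a cytochrome P450 panel screen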
[17] = non-specific 3'UTR reporter inhibition in Clone20-Shn3RL – cell-based, Renilla luciferase, cherry-picked, counter-screen for Shn3 inhibitor project, dose response (AID 624133); assay type: functional

Which IC50 (cells [1]) does the source give for COc1ccccc1NC(=O)Nc1ccc2c(c1)CCC2 here?
The IC50 was 40.5 µM (active).

And the CC50 [2]?
The CC50 was 46.2 µM (active).

Which IC50 (Leucine aminopeptidase) does the source give for O=C(CN1C(=O)c2ccccc2S1(=O)=O)NCCSCc1ccco1 here?
Its IC50 is 16.2 µM (active).

For O=C(O)c1cccc(C(=O)Cc2ccccc2)c1, which IC50 (Leucine aminopeptidase) is on record?
The IC50 was 17.5 µM (active).

With COc1cccc(-c2ccc3c(c2)[C@H]2[C@H](CCN2C(=O)NC2CCCCC2)[C@@H](CO)N3C)c1 as the compound, how does the AC50 (Paired box protein Pax-8) read?
Its AC50 is 10.6 µM (active).

What about the AC50 [3] of the same compound?
The AC50 was 27.1 µM (active).

What does the source list for CC1CCN(C(=O)c2ncn3c2C(=O)N[C@H](C)C3)CC1?
AC50 [4]: 8.4 µM (active); AC50 [5]: 16.1 µM (active); AC50 [6]: 26.6 µM (active); AC50 [7]: 4.8 µM (active)

With Fc1cccc(Cc2c(-c3ccco3)nc3ccc(Br)cn23)c1 as the compound, how does the IC50 (Major prion protein) read?
The IC50 was 6.29 µM (active).

What about the IC50 (cells [8]) of the same compound?
The IC50 was > 138 µM (inactive).

What does the source list for Cc1ccc(C2C(C#N)=C(N)SC(N)=C2C#N)cc1?
IC50 (Major prion protein): 1.86 µM (active); IC50 (cells [8]): > 138 µM (inactive)

What does the source list for CCN(C(=O)c1cc2cc3ccc(C)cc3nc2o1)c1ccc(OC)cc1?
IC50 (cells [1]): 33 µM (active); CC50 [2]: > 50 µM (active)

Which IC50 (Leucine aminopeptidase) does the source give for COC(=O)c1ccc(C)c(NC(=O)CN2C(=O)c3ccccc3S2(=O)=O)c1 here?
Its IC50 is 10 µM (active).

For COc1ccc2[nH]c(C(=O)Nc3ccc(C)c(F)c3)cc2c1, which IC50 (Major prion protein) is on record?
Its IC50 is 10.5 µM (inactive).

What about the IC50 (cells [8]) of the same compound?
The IC50 was > 138 µM (inactive).

What does the source list for C[C@H]1CN([C@@H](C)CO)S(=O)(=O)c2ccc(C#Cc3ccc(F)cc3)cc2O[C@@H]1CN(C)C(=O)NC1CCCCC1?
AC50 (Paired box protein Pax-8): 6.32 µM (active); AC50 [3]: 37.8 µM (active)

Which CC50 [9] does the source give for CN(C)S(=O)(=O)Oc1ccsc1C(=O)Nc1ccc(C(F)(F)F)cc1 here?
The CC50 was > 40 µM (active).

What does the source list for O=C(O)c1cccc(NC(=S)NC(=O)c2ccc(-c3ccc(Cl)cc3)o2)c1?
IC50 (cells [1]): 11.4 µM (active); CC50 [2]: 27.8 µM (active)

With O=C(Nc1nnc(SCC(=O)N2CCCCC2)s1)c1cccs1 as the compound, how does the IC50 (Leucine aminopeptidase) read?
The IC50 was 30.4 µM (active).

For Oc1ccc(N2CCN(c3ncnc4sc(-c5ccccc5)cc34)CC2)cc1, which EC50 [10] is on record?
Its EC50 is 1.21 µM (active).

And the EC50 [11]?
Its EC50 is > 160 µM (inactive).

What about the EC50 [12] of the same compound?
The EC50 was 3.78 µM (active).

And the EC50 (Melanocortin receptor 4)?
Its EC50 is > 89.2 µM (inactive).

What about the EC50 [13] of the same compound?
Its EC50 is > 60 µM (not active).

And the IC50 [14]?
The IC50 was 1.43 µM (active).

With Cn1c(=O)c2nc(CNCc3ccccc3Cl)[nH]c2n(C)c1=O as the compound, how does the CC50 [9] read?
Its CC50 is > 40 µM (active).

Which AC50 [15] does the source give for OC1(c2ccc(OC(F)F)cc2)CS/C(=N\c2cccnc2)N1C1CC1 (stereo not given) here?
Its AC50 is 7.56 µM (active).

What about the AC50 [16] of the same compound?
Its AC50 is 5.4 µM (active).

And the AC50 [4]?
Its AC50 is 0.464 µM (active).

What about the AC50 (Cytochrome P450 3A4) of the same compound?
The AC50 was 0.794 µM (inconclusive).

And the AC50 [5]?
The AC50 was > 70 µM (inactive).

What about the AC50 [6] of the same compound?
The AC50 was 36.4 µM (active).

And the AC50 [17]?
Its AC50 is 29.4 µM (active).

Which results are given for CCc1nc(SCC(=O)Nc2nc3c(s2)CCCC3)c2ccccc2n1?
IC50 (Major prion protein): 6.97 µM (active); IC50 (cells [8]): > 138 µM (inactive)

Which AC50 [4] does the source give for CCOC(=O)[C@@H]1[C@H]2COc3ccc(Br)cc3[C@@H]2N2C(=O)N(c3ccccc3)C(=O)[C@@]12C here?
Its AC50 is 22.9 µM (active).

And the AC50 [5]?
The AC50 was 5.09 µM (active).

And the AC50 [6]?
The AC50 was 6.14 µM (active).

And the AC50 [7]?
The AC50 was 2.15 µM (active).
